Assay results published in ChEMBL document CHEMBL1134173, “FR131535, a novel water-soluble echinocandin-like lipopeptide: synthesis and biological properties” (Bioorg Med Chem Lett, 2001).
In brackets after ≈: the same amount, converted by molar mass. Numbered stars: 1 amine (or outer) side, 2 acyl side, 3 side chain; on linkers, the order of the positions; unused ones are H or OH. Bridge positions count the residues as written; N and C are the ends. Square brackets hold non-standard residues; d marks the D form. Peptide text beside a SMILES is read from it. * marks the point of attachment. hTyr(3S-OH,4S-OH,3'-OSO3H) = N[C@H](C(=O)O)[C@H](O)[C@@H](O)c1ccc(O)c(OS(=O)(=O)O)c1; Orn(4R-OH,5R-OH) = O=C([C@H](C[C@@H](O)[C@@H](O)N[*:3])N[*:1])[*:2]; Orn(4R-OH,5S-OH) = O=C([C@H](C[C@@H](O)[C@H](O)N[*:3])N[*:1])[*:2]; hTyr(3S-OH,4S-OH) = N[C@H](C(=O)O)[C@H](O)[C@@H](O)c1ccc(O)cc1; Pro(3S-OH,4S-Me) = C[C@H]1CN[C@H](C(=O)O)[C@H]1O; Benzoyl(4-octyloxy) = CCCCCCCCOc1ccc(C(=O)*)cc1; Gln(3R-OH) = NC(=O)C[C@@H](O)[C@H](N)C(=O)O; Palmitoyl = CCCCCCCCCCCCCCCC(=O)*; Hyp = O=C(O)[C@@H]1C[C@@H](O)CN1

Legend:
[1] = system: Aspergillus niger; experiment: In vitro antifungal activity against Aspergillus niger ATCC 9642 at 37 degrees C for 22h; type: functional, organism-based; conditions: ATCC 9642, 22 h
[2] = system: Aspergillus fumigatus; experiment: In vitro antifungal activity against Aspergillus fumigatus FD050 at 37 degrees C for 22h; type: functional, organism-based
[3] = system: Candida albicans; experiment: In vivo effective dose for antifungal activity on sc administration in female mice infected with 2.5*10e6 cells/mL of Candida albicans at day 10; type: functional
[4] = system: Candida albicans; experiment: In vivo effective dose for antifungal activity on sc administration in female mice infected with 2.5*10e6 cells/mL of Candida albicans at day 14; type: functional
[5] = system: Pichia kudriavzevii; experiment: In vitro antifungal activity against Candida krusei YC109 at 37 degrees C for 22h; type: functional, organism-based
[6] = system: Candida albicans; experiment: Compound was tested for inhibitory activity against 1,3-beta-glucan synthase from Candida albicans 6406; type: functional
[7] = system: Candida albicans; experiment: In vitro antifungal activity against Candida albicans FP578 at 37 degrees C for 22h; type: functional, organism-based
[8] = system: Candida albicans; experiment: In vitro antifungal activity against Candida albicans FP582 at 37 degrees C for 22h; type: functional, organism-based
[9] = system: Candida albicans; experiment: In vitro antifungal activity against Candida albicans FP629 at 37 degrees C for 22h; type: functional, organism-based
[10] = system: Candida albicans; experiment: In vitro antifungal activity against Candida albicans FP633 at 37 degrees C for 22h; type: functional, organism-based
[11] = system: Candida tropicalis; experiment: In vitro antifungal activity against Candida tropicalis YC118 at 37 degrees C for 22h; type: functional, organism-based
[12] = system: Cryptococcus neoformans; experiment: In vitro antifungal activity against Cryptococcus neoformans YC203 at 30 degrees C for 48 hr; type: functional, organism-based
[13] = system: Cyberlindnera jadinii; experiment: In vitro antifungal activity against Candida utilis YC123 at 37 degrees C for 22h; type: functional, organism-based; conditions: Williopsis jadinii
[14] = species on record: Mus musculus; experiment: Minimum lytic concentration that lysed red blood cells in mouse; type: functional
[15] = system: Pneumocystis carinii; experiment: Evaluated for inhibitory growth of Pneumocystis carinii cysts in lungs administered at the dose of 10 mg/kg expressed as number of cysts/lungs for 8 weeks; type: functional
[16] = system: Pneumocystis carinii; experiment: Evaluated for inhibitory growth of Pneumocystis carinii cysts in lungs administered at the dose of 10 mg/kg expressed as number of cysts/lungs for 3 weeks; type: functional
[17] = species on record: Homo sapiens; experiment: Lytic concentration for hemolytic activity in human by akaishi method; type: functional
[18] = species on record: Homo sapiens; experiment: Minimum lytic concentration that lysed red blood cells in human; type: functional
[19] = system: Candida albicans; experiment: In vitro inhibitory concentration required for antifungal activity against Candida albicans FP578 at 37 degrees C for 22h; type: functional, organism-based
[20] = system: Cryptococcus neoformans; experiment: In vitro inhibitory concentration degrees C for 48 hr; type: functional, organism-based

| SMILES | IC50 [1] | IC50 [2] | ED50 [3] | ED50 [4] | IC50 [5] | IC50 [6] | IC50 [7] | IC50 [8] | IC50 [9] | IC50 [10] | IC50 [11] | IC50 [12] | IC50 [13] | MLC [14] | Activity [15] | Activity [16] | LC30 [17] | MLC [18] | IC50 [19] | IC50 [20] |
| --- | --- | --- | --- | --- | --- | --- | --- | --- | --- | --- | --- | --- | --- | --- | --- | --- | --- | --- | --- | --- |
| CCCCCCCCOc1ccc(C(=O)N[C@H]2C[C@@H](O)[C@H](O)NC(=O)[C@@H]3[C@@H](O)[C@@H](C)CN3C(=O)[C@H]([C@H](O)CC(N)=O)NC(=O)[C@H]([C@H](O)[C@@H](O)c3ccc(O)c(OS(=O)(=O)[O-])c3)NC(=O)[C@@H]3C[C@@H](O)CN3C(=O)[C@H]([C@@H](C)O)NC2=O)cc1.[Na+] [FR-131535] ({Benzoyl(4-octyloxy)}-[Orn(4R-OH,5S-OH)]T[Hyp][hTyr(3S-OH,4S-OH,3'-OSO3H)][Gln(3R-OH)][Pro(3S-OH,4S-Me)]; lactam 1-C) | 0.16 µg/mL | < 0.003 µg/mL | 3 mg/kg | 3.5 mg/kg | 1.9 µg/mL | 2.8 µg/mL | 0.31 µg/mL | 0.39 µg/mL | 0.47 µg/mL | 0.47 µg/mL | 0.47 µg/mL | > 2.5 µg/mL | 1.35 µg/mL | > 500 µg/mL | 2.3 | <1.8 | > 500 µg/mL | > 1000 µg/mL | – | – |
| C[C@@H]1[C@H](O)[C@@H](C)/C=C/C=C/C=C/C=C/C=C/C=C/C=C/[C@H](O[C@@H]2O[C@H](C)[C@@H](O)[C@H](N)[C@@H]2O)C[C@@H]2O[C@](O)(C[C@@H](O)C[C@@H](O)[C@H](O)CC[C@@H](O)C[C@@H](O)CC(=O)O[C@H]1C)C[C@H](O)[C@H]2C(=O)O [AMPHOTERICIN B] | 1.9 µg/mL (≈ 2.06 µM) | 0.62 µg/mL (≈ 0.671 µM) | – | – | 1.6 µg/mL (≈ 1.73 µM) | – | – | 0.55 µg/mL (≈ 0.595 µM) | 0.39 µg/mL (≈ 0.422 µM) | 0.39 µg/mL (≈ 0.422 µM) | 0.62 µg/mL (≈ 0.671 µM) | 0.39 µg/mL (≈ 0.422 µM) | 0.47 µg/mL (≈ 0.509 µM) | – | – | – | – | – | 0.39 µg/mL (≈ 0.422 µM) | – |
| C[C@@H]([C@H](N)C(=O)N[C@H](C(=O)O)[C@H]1O[C@@H](n2cc(C=O)nc2O)[C@H](O)[C@@H]1O)[C@H](O)c1ccc(O)cn1 | – | – | – | – | – | > 100 µg/mL | – | – | – | – | – | – | – | – | – | – | – | – | – | – |
| CCCCCCCCCCCCCCCC(=O)N[C@H]1C[C@@H](O)[C@H](O)NC(=O)[C@@H]2[C@@H](O)[C@@H](C)CN2C(=O)[C@H]([C@H](O)CC(N)=O)NC(=O)[C@H]([C@H](O)[C@@H](O)c2ccc(O)c(OS(=O)(=O)O)c2)NC(=O)[C@@H]2C[C@@H](O)CN2C(=O)[C@H]([C@@H](C)O)NC1=O (Palmitoyl-[Orn(4R-OH,5S-OH)]T[Hyp][hTyr(3S-OH,4S-OH,3'-OSO3H)][Gln(3R-OH)][Pro(3S-OH,4S-Me)]; lactam 1-C) | 0.004 µg/mL (≈ 0.0034 µM) | 1.3 µg/mL (≈ 1.11 µM) | 1.1 mg/kg | 2.9 mg/kg | 0.14 µg/mL (≈ 0.119 µM) | 0.7 µg/mL (≈ 0.596 µM) | 0.025 µg/mL (≈ 0.0213 µM) | 0.004 µg/mL (≈ 0.0034 µM) | 0.018 µg/mL (≈ 0.0153 µM) | 0.018 µg/mL (≈ 0.0153 µM) | 0.09 µg/mL (≈ 0.0766 µM) | > 2.5 µg/mL | 0.03 µg/mL (≈ 0.0255 µM) | 31 µg/mL (≈ 26.4 µM) | 2 | <1.8 | 160 µg/mL (≈ 136 µM) | 31 µg/mL (≈ 26.4 µM) | – | – |
| COc1cc(Cc2cnc(N)nc2N)cc(OC)c1OC.Cc1cc(NS(=O)(=O)c2ccc(N)cc2)no1 [CO-TRIMOXAZOLE] | – | – | – | – | – | – | – | – | – | – | – | – | – | – | 4.1 | <1.8 | – | – | – | – |
| OC(Cn1cncn1)(Cn1cncn1)c1ccc(F)cc1F [FLUCONAZOLE] | – | – | < 1 mg/kg | 2.4 mg/kg | – | – | – | – | – | – | – | – | – | – | – | – | – | – | – | – |
| CCCCCCCCOc1ccc(C(=O)N[C@H]2C[C@@H](O)[C@@H](O)NC(=O)[C@@H]3[C@@H](O)[C@@H](C)CN3C(=O)[C@H]([C@@H](C)O)NC(=O)[C@H]([C@H](O)[C@@H](O)c3ccc(O)cc3)NC(=O)[C@@H]3C[C@@H](O)CN3C(=O)[C@H]([C@@H](C)O)NC2=O)cc1 [CILOFUNGIN] ({Benzoyl(4-octyloxy)}-[Orn(4R-OH,5R-OH)]T[Hyp][hTyr(3S-OH,4S-OH)]T[Pro(3S-OH,4S-Me)]; lactam 1-C) | 0.08 µg/mL (≈ 0.0777 µM) | > 0.003 µg/mL | 5 mg/kg | > 10 mg/kg | 3.2 µg/mL (≈ 3.11 µM) | – | – | 0.24 µg/mL (≈ 0.233 µM) | 0.47 µg/mL (≈ 0.456 µM) | 0.39 µg/mL (≈ 0.379 µM) | 0.94 µg/mL (≈ 0.912 µM) | – | 0.94 µg/mL (≈ 0.912 µM) | > 500 µg/mL | – | – | > 500 µg/mL | > 1000 µg/mL | 0.36 µg/mL (≈ 0.349 µM) | > 2.5 µg/mL |
